Source: PubChem BioAssay (NCI)
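Tested at 5 concentrations; 48 h exposure; 96-well plates; endpoints linearly interpolated, else capped at highest concentration. GI50 = concentration required for 50% inhibition of growth. The concentration for full growth arrest is given as TGI.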

Experiments:
Assay in all cases: NCI-60 cell line screen, 48 h
K-562 leukemia = test system: K-562 leukemia
SNB-19 CNS = test system: SNB-19 CNS
SF-295 CNS = test system: SF-295 CNS
MCF7 breast = test system: MCF7 breast
HCT-15 colon = test system: HCT-15 colon
HCC-2998 colon = test system: HCC-2998 colon
HOP-62 NSCLC = test system: HOP-62 NSCLC
SN12C renal = test system: SN12C renal
ACHN renal = test system: ACHN renal
KM12 colon = test system: KM12 colon
HT29 colon = test system: HT29 colon
OVCAR-3 ovarian = test system: OVCAR-3 ovarian
HOP-92 NSCLC = test system: HOP-92 NSCLC
IGROV1 ovarian = test system: IGROV1 ovarian
SK-OV-3 ovarian = test system: SK-OV-3 ovarian
EKVX NSCLC = test system: EKVX NSCLC
SW-620 colon = test system: SW-620 colon
SK-MEL-28 melanoma = test system: SK-MEL-28 melanoma
MDA-MB-435 = test system: MDA-MB-435
OVCAR-4 ovarian = test system: OVCAR-4 ovarian
UO-31 renal = test system: UO-31 renal
NCI-H460 lung = test system: NCI-H460 lung
A498 renal = test system: A498 renal
HCT-116 colon = test system: HCT-116 colon
DU-145 prostate = test system: DU-145 prostate
BT-549 breast = test system: BT-549 breast
SK-MEL-5 melanoma = test system: SK-MEL-5 melanoma
NCI-H23 lung = test system: NCI-H23 lung
COLO 205 colon = test system: COLO 205 colon
HL-60(TB) leukemia = test system: HL-60(TB) leukemia
TK-10 renal = test system: TK-10 renal
NCI-H522 lung = test system: NCI-H522 lung
A549 NSCLC = test system: A549 NSCLC
SF-268 CNS = test system: SF-268 CNS
MOLT-4 leukemia = test system: MOLT-4 leukemia
SF-539 CNS = test system: SF-539 CNS
U251 CNS = test system: U251 CNS
SK-MEL-2 melanoma = test system: SK-MEL-2 melanoma
786-0 renal = test system: 786-0 renal
LOX IMVI melanoma = test system: LOX IMVI melanoma
UACC-62 melanoma = test system: UACC-62 melanoma
UACC-257 melanoma = test system: UACC-257 melanoma
SR leukemia = test system: SR leukemia
M14 melanoma = test system: M14 melanoma
OVCAR-5 ovarian = test system: OVCAR-5 ovarian
NCI-H226 lung = test system: NCI-H226 lung
CCRF-CEM leukemia = test system: CCRF-CEM leukemia
OVCAR-8 ovarian = test system: OVCAR-8 ovarian
PC-3 prostate = test system: PC-3 prostate
SNB-75 CNS = test system: SNB-75 CNS
MDA-MB-231 breast = test system: MDA-MB-231 breast
RPMI-8226 leukemia = test system: RPMI-8226 leukemia
RXF 393 renal = test system: RXF 393 renal
NCI/ADR-RES ovarian = test system: NCI/ADR-RES ovarian
HS 578T breast = test system: HS 578T breast

Work on `COc1cc2cc(c1Cl)N(C)C(=O)C[C@H](OC(=O)[C@H](C)N(C)C(=O)CCS)C[C@]1(C)O[C@H]1[C@H](C)[C@@H]1C[C@@](O)(NC(=O)O1)[C@H](OC)/C=C/C=C(\C)C2` yielded a GI50 (K-562 leukemia) of less than 5 nM, a TGI (K-562 leukemia) greater than 50000 nM and a GI50 (SNB-19 CNS) of less than 5 nM. It also gave a TGI (SNB-19 CNS) greater than 50000 nM, a GI50 (SF-295 CNS) of less than 5 nM and a GI50 (MCF7 breast) of less than 5 nM. It also gave a TGI (MCF7 breast) greater than 50000 nM, a GI50 (HCT-15 colon) of 6.24 nM and a TGI (HCT-15 colon) greater than 50000 nM. For the same compound, the GI50 (HCC-2998 colon) was 6.09 nM, the TGI (HCC-2998 colon) was greater than 50000 nM and the GI50 (HOP-62 NSCLC) was less than 5 nM. It also gave a TGI (HOP-62 NSCLC) greater than 50000 nM, a GI50 (SN12C renal) of less than 5 nM and a TGI (SN12C renal) greater than 50000 nM. It also gave a GI50 (ACHN renal) of less than 5 nM, a TGI (ACHN renal) greater than 50000 nM and a GI50 (KM12 colon) of less than 5 nM. The TGI (KM12 colon) was greater than 50000 nM, the GI50 (HT29 colon) was less than 5 nM and the TGI (HT29 colon) was greater than 50000 nM. The GI50 (OVCAR-3 ovarian) was less than 5 nM, the TGI (OVCAR-3 ovarian) was greater than 50000 nM and the GI50 (HOP-92 NSCLC) was less than 5 nM. The TGI (HOP-92 NSCLC) was 49600 nM, the GI50 (IGROV1 ovarian) was 7.62 nM and the TGI (IGROV1 ovarian) was greater than 50000 nM. The GI50 (SK-OV-3 ovarian) was less than 5 nM, the TGI (SK-OV-3 ovarian) was greater than 50000 nM and the GI50 (EKVX NSCLC) was 9.51 nM. The TGI (EKVX NSCLC) was greater than 50000 nM, the GI50 (SW-620 colon) was less than 5 nM and the TGI (SW-620 colon) was greater than 50000 nM. The GI50 (SK-MEL-28 melanoma) was 3470 nM, the TGI (SK-MEL-28 melanoma) was greater than 50000 nM and the GI50 (MDA-MB-435) was less than 5 nM. The TGI (MDA-MB-435) was less than 5 nM, the GI50 (OVCAR-4 ovarian) was 21.8 nM and the TGI (OVCAR-4 ovarian) was greater than 50000 nM. For the same compound, the GI50 (UO-31 renal) was 28.2 nM, the TGI (UO-31 renal) was greater than 50000 nM and the GI50 (NCI-H460 lung) was less than 5 nM. The TGI (NCI-H460 lung) was greater than 30800 nM, the GI50 (A498 renal) was less than 5 nM and the TGI (A498 renal) was 496 nM. The GI50 (HCT-116 colon) was less than 5 nM, the TGI (HCT-116 colon) was 5780 nM and the GI50 (DU-145 prostate) was less than 5 nM. The TGI (DU-145 prostate) was greater than 50000 nM, the GI50 (BT-549 breast) was less than 5 nM and the TGI (BT-549 breast) was 134 nM. For the same compound, the GI50 (SK-MEL-5 melanoma) was less than 5 nM, the TGI (SK-MEL-5 melanoma) was 62.8 nM and the GI50 (NCI-H23 lung) was 8.04 nM. It also gave a TGI (NCI-H23 lung) greater than 50000 nM, a GI50 (COLO 205 colon) of less than 5 nM and a TGI (COLO 205 colon) of 25.7 nM. For the same compound, the GI50 (HL-60(TB) leukemia) was less than 5 nM, the TGI (HL-60(TB) leukemia) was less than 5 nM and the GI50 (TK-10 renal) was greater than 17100 nM. The TGI (TK-10 renal) was greater than 50000 nM, the GI50 (NCI-H522 lung) was less than 5 nM and the TGI (NCI-H522 lung) was 42.6 nM. For the same compound, the GI50 (A549 NSCLC) was 7.52 nM, the TGI (A549 NSCLC) was greater than 50000 nM and the GI50 (SF-268 CNS) was 9.54 nM. The TGI (SF-268 CNS) was greater than 50000 nM, the GI50 (MOLT-4 leukemia) was less than 5 nM and the TGI (MOLT-4 leukemia) was greater than 50000 nM. The GI50 (SF-539 CNS) was less than 5 nM, the TGI (SF-539 CNS) was 67.4 nM and the GI50 (U251 CNS) was less than 5 nM. The TGI (U251 CNS) was greater than 32900 nM, the GI50 (SK-MEL-2 melanoma) was less than 5 nM and the TGI (SK-MEL-2 melanoma) was greater than 50000 nM. For the same compound, the GI50 (786-0 renal) was 9.06 nM, the TGI (786-0 renal) was greater than 24700 nM and the GI50 (LOX IMVI melanoma) was less than 5 nM. It also gave a TGI (LOX IMVI melanoma) greater than 22900 nM, a GI50 (UACC-62 melanoma) of less than 5 nM and a TGI (UACC-62 melanoma) greater than 50000 nM. It also gave a GI50 (UACC-257 melanoma) greater than 50000 nM, a TGI (UACC-257 melanoma) greater than 50000 nM and a GI50 (SR leukemia) of less than 5 nM. The TGI (SR leukemia) was greater than 50000 nM, the GI50 (M14 melanoma) was less than 5 nM and the TGI (M14 melanoma) was less than 5 nM. The GI50 (OVCAR-5 ovarian) was 9.94 nM, the TGI (OVCAR-5 ovarian) was greater than 50000 nM and the GI50 (NCI-H226 lung) was 38 nM. The TGI (NCI-H226 lung) was greater than 50000 nM, the GI50 (CCRF-CEM leukemia) was less than 5 nM and the TGI (CCRF-CEM leukemia) was greater than 50000 nM. For the same compound, the GI50 (OVCAR-8 ovarian) was 8.3 nM, the TGI (OVCAR-8 ovarian) was greater than 50000 nM and the GI50 (PC-3 prostate) was less than 5 nM. For the same compound, the TGI (PC-3 prostate) was greater than 50000 nM, the GI50 (SNB-75 CNS) was less than 5 nM and the TGI (SNB-75 CNS) was greater than 50000 nM. It also gave a GI50 (MDA-MB-231 breast) of 6.81 nM, a TGI (MDA-MB-231 breast) of 1610 nM and a GI50 (RPMI-8226 leukemia) of less than 5 nM. For the same compound, the TGI (RPMI-8226 leukemia) was 21600 nM, the GI50 (RXF 393 renal) was 6.44 nM and the TGI (RXF 393 renal) was greater than 50000 nM. It also gave a GI50 (NCI/ADR-RES ovarian) of 24.4 nM, a TGI (NCI/ADR-RES ovarian) of 34800 nM and a GI50 (HS 578T breast) of 16.4 nM. For the same compound, the TGI (HS 578T breast) was greater than 32000 nM.
